Source: patent US20120232062A1, “AZAINDAZOLES TO TREAT FLAVIVIRIDAE VIRUS INFECTION” (EIGER BIOPHARMACEUTICALS, INC., priority 2009, published 2012)

System: HCV genotype 1b
Experiment: HCV 1b replicon luciferase assay
Format: cell-based
Conditions: Hepatitis C virus, Huh-7, 48 h, Table 1; Huh7 HCV 1b replicon, luciferase reporter, 48 hours; read-out: 1b EC50
Description: A suitable 1b HCV RNA replicon assay uses the Huh7 cell line which contains an HCV 1b RNA replicon with a stable luciferase (LUC) reporter. This construct contains modifications that make the cell line more robust and provides stable LUC expression for antiviral screening. The LUC reporter is used as an indirect measure of HCV replication. The activity of the LUC reporter is directly proportional to HCV RNA levels and positive control antiviral compounds behave comparably using LUC endpoints. […]
Fresh growth medium is prepared just before use. The container used in the procedure is a 10 cm diameter culture dish. HCV replicon reporter cell lines are used. Prepare complete medium: add FBS and appropriate additives as described in “Culture Media”, below. Pre-warm the medium in a 37° C. thermostat water bath. Remove the dish from a 37° C. CO2 incubator. Check the cell name and complete medium and passage number marked on the dish. Aspirate the medium carefully and add 1 ml PBS to rinse the cells. Remove and discard the solution and add 1 ml of 0.25% Trypsin/0.02% EDTA. Rinse the cells with the added Trypsin/EDTA to ensure all the cells have been rinsed. Remove the Trypsin/EDTA with a vacuum pump and incubate at 37° C. for 3-5 minutes. Examine the cell morphology under an inverted microscope to confirm that a single cell suspension is clearly visible. Add 3 ml of complete medium to the dish and suspend the cell by gentle pipetting. Count the cell numbers with a hematometer. Adjust cell density to 100 k/ml by adding appropriate volume of the complete medium. Add 100 μl of cell suspension to each well of a 96-well white plate; the cell density is thus 10 k per well. Mark the plate with cell name, passage number, seeding density, date and the name of the operator. Place the 96-well assay plate in 37° C. 5% CO2 incubator for 24 hours.
Compounds are prepared or provided at 25 mM in 100% DMSO. This is the compound stock solution. The dilution procedure should be performed in a cell culture hood. Dispense the stock solution into the second column of a 96-well plate. Prepare 9-step (10 concentrations total), 5-fold serial dilutions by transferring 10 μA of the compound into the next well containing 40 μA of DMSO. Repeat for all compounds. Aspirate 2 μl of the above compound solution from each well and add into 198 μl complete media using a 12-channel pipetter to obtain the 10-fold concentration compound solution with 1% DMSO, mix well.
Remove the 96-well assay plate from the 37° C./5% CO2 incubator, examine the cell morphology under an inverted microscope. In a cell culture hood, add 10 μl of the 10× concentration compounds solution into each well on the 96-well assay plate. All compound's dose responses are done in duplicate. The starting final concentration of the compounds is 25 μM, and DMSO final concentration 0.1%. Mark the plate with compound code(s) and concentrations. Place the 96-well assay plate into CO2 incubator for 48 hours. Add 30 μl of Stead-Glo Luciferase System (Promega) reagent to each well and mix by gentle shaking on a plate shaker for 5 minutes to allow throughout cell lysis. Measure the luminescence with Envision (Perkin Elmer) with an integration time of 2 seconds. Record and analyze the data.
The cell culture media is DMEM complete: DMEM (Life Technologies #41965-039) supplemented with 10% FCS, 2 mM Glutamin (Life Technologies #25030-024), Penicillin (100 IU/ml)/Streptomycin (100 μg/ml) (Life Technologies #15140-114) and 1× nonessential amino acids (Life Technologies #11140-035). G418 (“Geneticin”, Life Technologies): concentrations are given as weight per volume of the original substance. Specific activity of a typical batch is ca. 700 μg/mg as stated by the manufacturer. […] Therefore each new batch of G418 should be tested individually e.g. in an electroporation experiment using different selection conditions (0.2-1 mg/ml).

| SMILES | EC50 |
| --- | --- |
| Cn1nc(C(=O)NC2CCNCC2)c2ccc(NCc3ccccc3)nc21 [compound 1042] | 3800 nM |
| Cn1nc(C(=O)NC2CCN(Cc3ccncc3)CC2)c2ccc(N3CCCCCC3)nc21 [compound 1043] | 1200 nM |
| COc1ccc(CN2CCC(NC(=O)c3nn(C)c4nc(N5CCCCCC5)ccc34)CC2)cc1 [compound 1044] | 760 nM |
| CC(C)c1ccc(CN2CCC(NC(=O)c3nn(C)c4nc(N5CCCCCC5)ccc34)CC2)cc1 [compound 1046] | 1400 nM |
| Cn1nc(C(=O)NC2CCNCC2)c2ccc(N3CCCN(Cc4ccccc4)CC3)nc21 [compound 1049] | 6100 nM |
| Cn1nc(C(=O)NC2CCNCC2)c2ccc(OCc3ccccc3)nc21 [compound 1051] | 2900 nM |
| Cn1nc(-c2c[nH]c(CC3CCNCC3)n2)c2ccc(N3CCCCCC3)nc21 [compound 1054] | 8600 nM |
| Cn1nc(C(=O)NC2CCNCC2)c2ccc(OCc3ccccc3Br)nc21 [compound 1065] | 3300 nM |
| Cn1nc(C(=O)NC2CCNCC2)c2ccc(OCc3ccccc3-c3nc4ccccc4s3)nc21 [compound 1066] | 2500 nM |
| Cn1nc(-c2ncc(-c3ccc(Br)cc3)[nH]2)c2ccc(N3CCCCCC3)nc21 [compound 1069] | 8300 nM |
| Cn1nc(C(=O)NC2CCN(CC3CCCCC3)CC2)c2ccc(NC3CCCCCC3)nc21 [compound 1073] | 670 nM |
| CC(C)CN(C)c1ccc2c(C(=O)NC3CCN(CC4CCCCC4)CC3)nn(C)c2n1 [compound 1075] | 760 nM |
| Cn1nc(C(=O)NC2CCN(CC3CCCCC3)CC2)c2ccc(NC3CCCCCCC3)nc21 [compound 1076] | 600 nM |
| CN(c1ccc2c(C(=O)NC3CCN(CC4CCCCC4)CC3)nn(C)c2n1)C1CCCCCC1 [compound 1077] | 1600 nM |
| Cn1nc(C(=O)NC2CCNCC2)c2ccc(OCc3ccccc3-c3cccnc3)nc21 [compound 1085] | 2200 nM |
| Cn1nc(C(=O)NC2CCNCC2)c2ccc(OCc3ccccc3-c3cccc(Cl)c3)nc21 [compound 1088] | 1400 nM |
| Cn1nc(-c2c[nH]c(C3CCNCC3)n2)c2ccc(N3CCCCCC3)nc21 [compound 1094] | 6500 nM |
| Cn1nc(-c2c[nH]c(C3CCCNC3)n2)c2ccc(N3CCCCCC3)nc21 (stereo not shown) [compound 1095] | 3800 nM |
| Cn1nc(-c2coc(CC3CCNCC3)n2)c2ccc(N3CCCCCC3)nc21 [compound 1096] | 2800 nM |

| SMILES | EC50 |
| --- | --- |
| Cn1nc(-c2cnc(C(=O)NCC3CCNCC3)s2)c2ccc(N3CCCCCC3)nc21 [compound 1097] | 3400 nM |
| Cn1nc(C(=O)NC2CCNCC2)c2ccc(OCc3ccccc3-c3ccco3)nc21 [compound 1100] | 1400 nM |
| Cn1nc(C(=O)NC2CCNCC2)c2ccc(OCc3ccccc3-c3cccs3)nc21 [compound 1101] | 800 nM |
| Cn1nc(C(=O)NC2CCNCC2)c2ccc(OCc3ccccc3-c3ccc(Cl)cc3)nc21 [compound 1102] | 620 nM |
| C=CCCCCCCN1CCC(NC(=O)c2nn(C)c3nc(N4CCCCCC4)ccc23)CC1 [compound 1103] | 300 nM |
| C=CCCCn1nc(C(=O)NC2CCN(CC=C)CC2)c2ccc(N3CCCCCC3)nc21 [compound 1104] | 2200 nM |
| C=CCCCCn1nc(C(=O)NC2CCN(CC=C)CC2)c2ccc(N3CCCCCC3)nc21 [compound 1105] | 7500 nM |
| C=CCCCCCn1nc(C(=O)NC2CCN(CC=C)CC2)c2ccc(N3CCCCCC3)nc21 [compound 1106] | 8100 nM |
| COc1cncc(-c2ccccc2COc2ccc3c(C(=O)NC4CCNCC4)nn(C)c3n2)c1 [compound 1119] | 1500 nM |
| Cn1nc(-c2nnc(C3CCNCC3)o2)c2ccc(N3CCCCCC3)nc21 [compound 1125] | 840 nM |
| Cn1cc(-c2nn(C)c3nc(N4CCCCCC4)ccc23)nc1CC1CCNCC1 [compound 1126] | 7700 nM |
| Cn1nc(-c2cnc(C(=O)NC3CCNCC3)s2)c2ccc(N3CCCCCC3)nc21 [compound 1127] | 2900 nM |
| Cn1nc(-c2cnc(C(=O)NC3CCCNC3)s2)c2ccc(N3CCCCCC3)nc21 (stereo not shown) [compound 1128] | 490 nM |
| Cn1nc(-c2cnc(C(=O)NCC3CCCNC3)s2)c2ccc(N3CCCCCC3)nc21 (stereo not shown) [compound 1130] | 990 nM |
| CC1CC(NC(=O)c2nn(C)c3nc(N4CCCCCCC4)ccc23)CCN1CC1CCCCC1 (stereo not shown) [compound 1151] | 1400 nM |
| CC1CC(NC(=O)c2nn(C)c3nc(N4CCCCCCC4)ccc23)CCN1Cc1ccc(OC(F)F)cc1 (stereo not shown) [compound 1152] | 6100 nM |
| CC1CC(NC(=O)c2nn(C)c3nc(N4CCCCCCC4)ccc23)CCN1CCCC1CCCCC1 (stereo not shown) [compound 1153] | 1500 nM |
| Cn1nc(CCCN2CCCCC2)c2ccc(N3CCCCCCC3)nc21 [compound 1172] | 1500 nM |
| CCN(c1ccc2c(C(=O)NC3CCN(CC4CCCCC4)CC3)nn(C)c2n1)C1CCCCCC1 [compound 1183] | 746 nM |

| SMILES | EC50 |
| --- | --- |
| Cn1nc(C(=O)NC2CCN(CC3CCCCC3)CC2)c2ccc(N(Cc3ccccc3)C3CCCCCC3)nc21 [compound 1184] | 168 nM |
| Clc1ccc(Cn2nc(COCCN3CCCCC3)c3ccc(N4CCCCCCC4)nc32)cc1 [compound 1204] | 5400 nM |
| Clc1ccc(Cn2nc(COCCCN3CCCCC3)c3ccc(N4CCCCCCC4)nc32)cc1 [compound 1205] | 4000 nM |
| Cn1nc(C(=O)NC2CCN(CC3CC3)CC2)c2ccc(N3CCCCCCC3)nc21 [compound 1222] | 3200 nM |
| Cn1nc(C(=O)NC2CCN(CC(F)F)CC2)c2ccc(N3CCCCCCC3)nc21 [compound 1223] | 2800 nM |
| Cc1ccc(CN2CCC(NC(=O)c3nn(C)c4nc(N5CCCCCCC5)ccc34)CC2)cc1 [compound 1224] | 2700 nM |
| CC(C)CCN1CCC(NC(=O)c2nn(C)c3nc(N4CCCCCCC4)ccc23)CC1C (stereo not shown) [compound 1233] | 5300 nM |
| CCN1CCC(NC(=O)c2nn(C)c3nc(N4CCCCCCC4)ccc23)CC1C (stereo not shown) [compound 1234] | 1900 nM |
| CCCN1CCC(NC(=O)c2nn(C)c3nc(N4CCCCCCC4)ccc23)CC1 [compound 1235] | 3400 nM |
| CC(C)CN1CCC(NC(=O)c2nn(C)c3nc(N4CCCCCCC4)ccc23)CC1 [compound 1236] | 6300 nM |
| Cn1nc(-c2cnc(C3CCCNC3)s2)c2ccc(N3CCCCCCC3)nc21 (stereo not shown) [compound 1248] | 4100 nM |
| Cn1nc(-c2cnc(C(=O)NCc3ccccc3)s2)c2ccc(N3CCCCCCC3)nc21 [compound 1250] | 1400 nM |
| Cn1nc(-c2cnc(C(=O)NCC3CCCCC3)s2)c2ccc(N3CCCCCCC3)nc21 [compound 1251] | 1000 nM |
| Cn1nc(-c2cnc(C(=O)NC3CCCCC3)s2)c2ccc(N3CCCCCCC3)nc21 [compound 1254] | 1400 nM |
| Cn1nc(-c2cnc(C3CCCN(CC4CCCCC4)C3)s2)c2ccc(N3CCCCCCC3)nc21 (stereo not shown) [compound 1255] | 3000 nM |
| Cn1nc(-c2cnc(C3CCCN(Cc4ccc(OC(F)F)cc4)C3)s2)c2ccc(N3CCCCCCC3)nc21 (stereo not shown) [compound 1257] | 2400 nM |
| Cn1nc(-c2cnc(C(=O)NCC3CCCN(CC(F)F)C3)s2)c2ccc(N3CCCCCCC3)nc21 (stereo not shown) [compound 1261] | 1800 nM |
| Cn1nc(-c2cnc([C@@H]3CCCN3CC3CCCCC3)s2)c2ccc(N3CCCCCCC3)nc21 [compound 1264] | 2400 nM |
| Cn1nc(-c2cnc(C3CCN(CC4CCCCC4)C3)s2)c2ccc(N3CCCCCCC3)nc21 (stereo not shown) [compound 1268] | 580 nM |

Same assay, conditions: Table 1; Huh7 HCV 1b replicon, luciferase reporter, 48 hours; read-out: 1b EC50

| SMILES | EC50 |
| --- | --- |
| Cc1ccc(CN2CCC(NC(=O)c3nn(C)c4nc(N5CCCCCC5)ccc34)CC2)cc1 [compound 1045] | 1100 nM |
